Assay results from US7005526B2, “Thioether derivatives” (Hoffmann-La Roche Inc., priority 2004, dated 2006).

Tests used:
[1] = biological target: T1, HER-2 (Homo sapiens, UniProt P04626); test: Inhibition of HER-2 phosphorylation in Calu-3 tumor cell line; assay type: cell-based; details: compound concentration 1 μM; Calu-3 cells, 16 h incubation; pY 1248 in HER-2; relative to DMSO control; read-out: Percent inhibition of HER-2-phosphorylation
T1 construct: endogenous in cells; host or cells: Calu-3 (ATCC HTB-55) human non-small-cell lung cancer cells
T1 sequence (P04626 23-1255): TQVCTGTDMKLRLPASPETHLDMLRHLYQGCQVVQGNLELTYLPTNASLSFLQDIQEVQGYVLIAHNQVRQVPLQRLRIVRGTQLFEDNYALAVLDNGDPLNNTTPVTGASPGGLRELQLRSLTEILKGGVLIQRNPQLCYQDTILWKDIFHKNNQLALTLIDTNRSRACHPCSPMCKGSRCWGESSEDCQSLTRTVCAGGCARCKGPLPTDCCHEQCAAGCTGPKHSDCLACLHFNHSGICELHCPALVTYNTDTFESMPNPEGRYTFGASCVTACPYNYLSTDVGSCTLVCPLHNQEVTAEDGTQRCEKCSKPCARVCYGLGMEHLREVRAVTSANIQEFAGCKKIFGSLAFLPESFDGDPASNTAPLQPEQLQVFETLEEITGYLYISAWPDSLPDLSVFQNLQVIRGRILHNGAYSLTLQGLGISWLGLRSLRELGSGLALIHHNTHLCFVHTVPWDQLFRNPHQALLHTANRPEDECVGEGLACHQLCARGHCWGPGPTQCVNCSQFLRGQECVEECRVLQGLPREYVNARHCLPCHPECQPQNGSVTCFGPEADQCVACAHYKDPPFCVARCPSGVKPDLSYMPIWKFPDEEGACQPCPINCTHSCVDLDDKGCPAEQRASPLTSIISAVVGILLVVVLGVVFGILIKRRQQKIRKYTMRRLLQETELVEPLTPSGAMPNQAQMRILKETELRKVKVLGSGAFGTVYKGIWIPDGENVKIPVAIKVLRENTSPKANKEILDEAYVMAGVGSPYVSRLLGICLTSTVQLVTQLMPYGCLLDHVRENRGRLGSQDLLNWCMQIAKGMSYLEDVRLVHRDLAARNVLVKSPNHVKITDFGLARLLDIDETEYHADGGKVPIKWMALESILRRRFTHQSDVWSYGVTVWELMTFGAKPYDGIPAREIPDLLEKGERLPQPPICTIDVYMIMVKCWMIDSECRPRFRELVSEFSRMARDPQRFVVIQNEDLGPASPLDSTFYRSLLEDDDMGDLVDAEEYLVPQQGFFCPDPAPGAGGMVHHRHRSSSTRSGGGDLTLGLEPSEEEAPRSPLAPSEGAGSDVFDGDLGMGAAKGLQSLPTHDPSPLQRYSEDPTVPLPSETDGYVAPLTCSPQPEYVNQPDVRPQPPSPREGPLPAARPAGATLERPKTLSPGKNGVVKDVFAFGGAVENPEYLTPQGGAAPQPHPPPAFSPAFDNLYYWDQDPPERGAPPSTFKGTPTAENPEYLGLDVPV
Description: Inhibition of HER-2 Phosphorylation in Calu-3 Tumor Cell Line
2×10^5 Calu-3 (ATTC HTB-55) cells per well were plated in a 12-well plate. After 4 days cells were starved for 16 h in Dulbecco's Modified Eagle Medium (DMEM)/0.5% Fetal Calf Serum (FCS)/1% Glutamine. During this 16 h period cells were incubated with a solution of the test compound in dimethylsulfoxide (DMSO), so that the final concentration of the compound is 1 μM and the final volume of DMSO is 0.5%. Afterwards cells were lysed in lyses buffer containing 1% octyl phenol ethoxylate (Triton®X-100), 10% Glycerol, 1 mM Ethylene glycol-bis(2-aminoethylether)-N,N,N′,N′-tetraacetic acid (EGTA), 1.5 mM MgCl2, 150 mM NaCl, 50 mM 4-(2-hydroxyethyl)-1-piperazineethanesulfonic acid (HEPES) buffer pH 7.5, 1 mM Phenylmethylsulfonyl fluoride (PMSF), 10 μg/mL Aprotinin (a naturally occurring protein that is obtained and purified from cow's lungs) and […] Orthovanadate (Na3VO4). Cell lysates were analyzed on a Sodium Dodecyl Sulfate Polyacrylamide Gel Electrophoresis (SDS PAGE) and after transfer to a nitrocellulose membrane detected with an antibody specifically recognizing the pY 1248 in HER-2 (phosphorylated tyrosine residue 1248 of human epidermal receptor 2). After incubation with an anti rabbit antibody coupled to POD (Peroxidase available from Biorad, Munich, Germany) signals were detected by chemiluminescence (ECL, Amersham). Inhibition of HER-2 phosphorylation is calculated as percentage of the control, which is treated with DMSO only. This percentage was calculated according to the following formula: Inhibition in %=100−(Phosphorylated-HER2-Signal of Test Sample*100/Phosphorylated-HER2-Signal DMSO-control).

| inhibition at 1 µM [1] [%] | melting point [°C] | SMILES |
| --- | --- | --- |
| 65 to 80 |  | FC(F)(F)Oc1ccc(C=Cc2nc(COc3ccc(CSCCn4ccnn4)cc3)co2)cc1 [Example 1, 1-[2-(4-{2-[2-(4-Trifluoromethoxy-phenyl)-vinyl]-oxazol-4-ylmethoxy}-benzylsulfanyl)-ethyl]-1H-[1,2,3]triazole] |
| > 80 |  | [O-][S+](CCn1ccnn1)Cc1ccc(OCc2coc(/C=C/c3ccc(OC(F)(F)F)cc3)n2)cc1 (centres unmarked) [Example 3, 1-[2-(4-{2-[2-(E)-(4-Trifluoromethoxy-phenyl)-vinyl]-oxazol-4-ylmethoxy}-phenylmethanesulfinyl)-ethyl]-1H-[1,2,3]triazole] |
| > 80 |  | [O-][S+](CCn1ccnn1)Cc1ccc(OCc2coc(/C=C/c3ccc(C(F)(F)F)cc3F)n2)cc1 (centres unmarked) [Example 11, 1-[2-(4-{2-[2-(E)-(2-Fluoro-4-trifluoromethyl-phenyl)-vinyl]-oxazol-4-ylmethoxy}-phenylmethanesulfinyl)-ethyl]-1H-[1,2,3]triazole] |
|  | 182 to 184 | [O-][S+](CCn1ccnn1)Cc1ccc(OCc2coc(C=Cc3ccc(SC(F)(F)F)cc3)n2)cc1 (centres unmarked) [Example 4, 1-[2-(4-{2-[2-(4-Trifluoromethylsulfanyl-phenyl)-vinyl]-oxazol-4-ylmethoxy}-phenylmethanesulfinyl)-ethyl]-1H-[1,2,3]triazole] |
| > 80 |  | Fc1cc(C(F)(F)F)ccc1/C=C/c1nc(COc2ccc(CSCCn3ccnn3)cc2)co1 [Example 7, 1-[2-(4-{2-[2-(E)-(2-Fluoro-4-trifluoromethyl-phenyl)-vinyl]-oxazol-4-ylmethoxy}-benzylsulfanyl)-ethyl]-1H-[1,2,3]triazole] |
| 55 to 65 |  | FC(F)(F)c1ccc(C=Cc2nc(COc3ccc(CSCCn4ccnn4)cc3)co2)cc1 [Example 6, 1-[2-(4-{2-[2-(4-Trifluoromethyl-phenyl)-vinyl]-oxazol-4-ylmethoxy}-benzylsulfanyl)-ethyl]-1H-[1,2,3]triazole] |
| 55 to 65 |  | O=S(=O)(CCn1ccnn1)Cc1ccc(OCc2coc(/C=C/c3ccc(C(F)(F)F)cc3F)n2)cc1 [Example 10, 1-[2-(4-{2-[2-(E)-(2-Fluoro-4-trifluoromethyl-phenyl)-vinyl]-oxazol-4-ylmethoxy}-phenylmethanesulfonyl)-ethyl]-1H-[1,2,3]triazole] |
| 65 to 80 |  | Fc1cc(Cl)ccc1/C=C/c1nc(COc2ccc(CSCCn3ccnn3)cc2)co1 [Example 9, 1-[2-(4-{2-[2-(E)-(4-Chloro-2-fluoro-phenyl)-vinyl]-oxazol-4-ylmethoxy}-benzylsulfanyl)-ethyl]-1H-[1,2,3]triazole] |
